pEC50: −log10 of the molar value.
Biological target: T1, human FPRL1 (Homo sapiens, UniProt P25090)
T1 construct: expressed in transfected cells; host or cells: HEK293 (JCRB9068, NIBIO), transient transfection with pCMV-script vectors using Lipofectamine 2000
T1 sequence (P25090 1-351): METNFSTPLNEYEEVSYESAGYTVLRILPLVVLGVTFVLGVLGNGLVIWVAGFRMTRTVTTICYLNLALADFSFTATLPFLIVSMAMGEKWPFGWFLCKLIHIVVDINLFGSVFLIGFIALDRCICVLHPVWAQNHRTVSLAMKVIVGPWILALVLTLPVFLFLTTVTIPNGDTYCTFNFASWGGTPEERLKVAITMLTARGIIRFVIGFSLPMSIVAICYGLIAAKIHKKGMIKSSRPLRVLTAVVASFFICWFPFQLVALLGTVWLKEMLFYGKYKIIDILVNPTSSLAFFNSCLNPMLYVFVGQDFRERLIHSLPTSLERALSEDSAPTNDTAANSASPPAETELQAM
Assay: Measurement test of agonist activity on human FPRL1 (test of calcium mobilization in cell, HEK293 with human FPRL1 and Gα15 expression vectors)
Assay type: cell-based
Details: calcium mobilization in HEK293 cells with human FPRL1 and Gα15 expression vectors
Description: Measurement Test of Agonist Activity on Human FPRL1
(1-1) Construction of Human FPRL1 Expression Vector
Human FPRL (SEQ ID NO: 3) was amplified in a PCR reaction from cDNA derived from a monocytic leukemia cell line THP-1 (TIB-202, ATCC) as a template using a forward primer shown in SEQ ID NO: 1, a reverse primer shown in SEQ ID NO: 2, and KOD-plus-ver. 2 (KOD-211, TOYOBO CO., LTD.). The amplified PCR product and pCMV-script vector (212220, STRATAGENE) were digested with Hind III (1060A, Takara Bio Inc.) and XhoI (1094A, Takara Bio Inc.), and the resultant digest was ligated with Ligation high ver. 2 (LGK-201, TOYOBO CO., LTD.). The ligation product was transformed into DH5α (DNA-901, TOYOBO CO., LTD.), cultured on a 100 μg/mL kanamycin-containing LB medium, and purified with HiSpeed Plasmid Maxi Kit (12662, QIAGEN).
(1-2) Construction of Human Gα15 Expression Vector
Human Gα15 (SEQ ID NO: 6) was amplified in a PCR reaction from cDNA derived from a myeloid leukemia cell line HL-60 (CCL-240, ATCC) as a template using a forward primer shown in SEQ ID NO: 4, a reverse primer shown in SEQ ID NO: 5, and KOD-plus-ver. 2. The amplified PCR product and pCMV-script vector were digested with Hind III and XhoI, and the resultant digest was ligated with Ligation high ver. 2. The ligation product was transformed into DH5α, cultured on a 100 μg/mL kanamycin-containing LB medium, and purified with HiSpeed Plasmid Maxi Kit.
(2-1) Method for Culturing and Subculturing HEK293
HEK293 (JCRB9068, NIBIO) was cultured in an incubator at 5% CO2 and 37° C. using DMEM (11885-092, GIBCO) containing 10% FBS and 1× Penicillin-Streptomycin (15140-122, GIBCO). Subculture was carried out as followings: The cells that reached 80 to 90% confluency were washed with PBS(−), separated using 0.25% Trypsin-EDTA (25200-072, GIBCO), centrifuged, re-suspended in a fresh medium, and then seeded in Collagen Type 1 Coated dish (4020-010, IWAKI) at a split ratio of 1:8 (cultured for 3 days).
(2-2) Introduction of Human FPRL1 and Gα15 Expression Vectors
HEK293 that reached 80 to 90% confluency was washed with PBS(−), separated using 0.25% Trypsin-EDTA, centrifuged, and re-suspended in a fresh medium excluding 1× Penicillin-Streptomycin. The cells were inoculated in a Collagen Type 1 coated 6-well plate (4810-010, IWAKI) to 5×10^5 cells/2.5 mL/well and cultured overnight. On the next day, human FPRL1 and Gα15 expression vectors were introduced using Lipofectamine 2000 transfection reagent (11668-019, Life technologies). First, the human FPRL1 and Gα15 expression vectors were diluted with Opti-MEM I Reduced Serum Medium (31985-070, GIBCO) to 2 μg/250 μL/well and Lipofectamine 2000 transfection reagent was diluted with Opti-MEM I Reduced Serum Medium to be 4 μL/250 μL/well. The vectors and reagent were softly diffused, and incubated at room temperature for 5 minutes. The vector solution was mixed with Lipofectamine 2000 transfection reagent in equal amounts. In order to form a composite of the vectors and Lipofectamine 2000 transfection reagent, the mixture was incubated at room temperature for 20 minutes, and added at 500 μL/well to the medium of inoculated cells. The treated cells were cultured for 24 hours, inoculated in Poly-D-Lysine coated 96-well plate (356640, BD Biosciences) at a cell density of 7×10^4 cells/100 μL/well, and cultured for another 24 hours. The resultant cells were used in a measurement test of calcium mobilization in the cells.
(3) Evaluation of Agonist Activity on Human FPRL1 (Test of Calcium Mobilization in Cell)
An appropriate amount of each test compound was first weighed, and dissolved to 10^−2 M by addition of dimethyl sulfoxide (DMSO). […]

| Compound | pEC50 |
| --- | --- |
| COc1ccc([C@@H]2CNC(=O)[C@H]2NC(=O)Nc2ccc(C#N)cc2)cc1 (single isomer, unassigned) [EXAMPLE 1-5, (−)-1-(4-cyanophenyl)-3-[(3S*,4R*)-4-(4-methoxyphenyl)-2-oxopyrrolidin-3-yl]urea] | 8.54 |
| COc1cc(F)c([C@@H]2CNC(=O)[C@H]2NC(=O)Nc2ccc(C)s2)c(F)c1 (relative stereo) [Example 1-39, (−)-1-[(3S*,4R*)-4-(2,6-difluoro-4-methoxyphenyl)-2-oxopyrrolidin-3-yl]-3-(5-methylthiophen-2-yl)urea] | 8.45 |
| COc1ccc(NC(=O)N[C@@H]2C(=O)NC[C@H]2c2c(F)cc(OC)cc2F)cc1 (single isomer, unassigned) [EXAMPLE 1-24, (−)-1-[(3S*,4R*)-4-(2,6-difluoro-4-methoxyphenyl)-2-oxopyrrolidin-3-yl]-3-(4-methoxyphenyl)urea] | 8.49 |
| COc1ccc(C2CNC(=O)C2NC(=O)Nc2ccc(Cl)cc2)cc1 (single isomer, unassigned; (-)) [Example 12-11, (−)-1-(4-chlorophenyl)-3-[4-(4-methoxyphenyl)-2-oxopyrrolidin-3-yl]urea] | 8.34 |
| COc1cc(F)c([C@@H]2CNC(=O)[C@H]2NC(=O)Nc2cc(C)ns2)c(F)c1 (relative stereo) [Example 1-58, (−)-1-[(3S*,4R*)-4-(2,6-difluoro-4-methoxyphenyl)-2-oxopyrrolidin-3-yl]-3-(3-methylisothiazol-5-yl)urea] | 9.49 |
| COc1ccc([C@@H]2[C@H](C)NC(=O)[C@H]2NC(=O)Nc2ccc(F)cc2)cc1 (relative stereo) [Example 1-40, (−)-1-(4-fluorophenyl)-3-[(3S*,4R*,5S*)-4-(4-methoxyphenyl)-5-methyl-2-oxopyrrolidin-3-yl]urea] | 8.84 |
| CNC(=O)C(C)(C)N1C[C@@H](c2ccc(OC)cc2)[C@H](NC(=O)Nc2ccc(F)cc2)C1=O (relative stereo) [Example 23-1, (−)-2-{(3S*,4R*)-3-[3-(4-Fluorophenyl)ureido]-4-(4-methoxyphenyl)-2-oxopyrrolidin-1-yl}-N,2-dimethylpropionamide] | 10.05 |
| COc1cc(F)c([C@@H]2CNC(=O)[C@H]2NC(=O)Nc2cc3ccccc3s2)c(F)c1 (relative stereo) [Example 1-35, (−)-1-(benzo[b]thiophen-2-yl)-3-[(3S*,4R*)-4-(2,6-difluoro-4-methoxyphenyl)-2-oxopyrrolidin-3-yl]urea] | 9.12 |
| COc1ccc([C@@H]2CN(C(C)C(=O)O)C(=O)[C@H]2NC(=O)Nc2ccc(F)cc2)cc1 (single isomer, unassigned; isomer b) [Example 20-1, (−)-2-{(3S*,4R*)-3-[3-(4-Fluorophenyl)ureido]-4-(4-methoxyphenyl)-2-oxopyrrolidin-1-yl}propionic acid (isomer B)] | 9.33 |
| COc1ccc([C@@H]2CN(CCO)C(=O)C2NC(=O)Nc2ccc(Cl)cc2)cc1 (mixture of isomers) [Example 14-1, (±)-trans-1-(4-Chlorophenyl)-3-[1-(2-hydroxyethyl)-4-(4-methoxyphenyl)-2-oxopyrrolidin-3-yl]urea] | 9.49 |
| COc1cc(F)c([C@@H]2CNC(=O)[C@H]2NC(=O)Nc2ccc(F)cc2)cc1F (single isomer, unassigned) [EXAMPLE 1-13, (−)-1-[(3S*,4R*)-4-(2,5-difluoro-4-methoxyphenyl)-2-oxopyrrolidin-3-yl]-3-(4-fluorophenyl)urea] | 9.82 |
| CNC(=O)C(C)N1C[C@@H](c2ccc(OC)cc2)[C@H](NC(=O)Nc2ccc(F)cc2)C1=O (single isomer, unassigned; isomer b) [Example 21-1, (−)-2-{(3S*,4R*)-3-[3-(4-Fluorophenyl)ureido]-4-(4-methoxyphenyl)-2-oxopyrrolidin-1-yl}-N-methylpropionamide (isomer B)] | 10.40 |

Second part, the compound after the results:

| pEC50 | Compound |
| --- | --- |
| 9.40 | COc1cc(F)c([C@@H]2CN(CCO)C(=O)[C@H]2NC(=O)Nc2ccccc2)c(F)c1 (relative stereo) [Example 24-6, (−)-1-[(3S*,4R*)-4-(2,6-difluoro-4-methoxyphenyl)-1-(2-hydroxyethyl)-2-oxopyrrolidin-3-yl]-3-phenylurea] |
| 9.36 | CO/N=C1\NC[C@@H](c2c(F)cc(OC)cc2F)[C@@H]1NC(=O)Nc1ccc(C)cc1 (single isomer, unassigned) [EXAMPLE 32-8, (−)-1-[(3S*,4R*,Z)-4-(2,6-difluoro-4-methoxyphenyl)-2-(methoxyimino)pyrrolidin-3-yl]-3-(p-tolyl)urea] |
| 8.88 | O=C(Nc1ccc(F)cc1)N[C@@H]1C(=O)N(CC2CC2)C[C@H]1c1cc2c(cc1F)OCC2 (single isomer, unassigned) [EXAMPLE 24-22, (−)-1-[(3S*,4R*)-1-(cyclopropylmethyl)-4-(6-fluoro-2,3-dihydrobenzofuran-5-yl)-2-oxopyrrolidin-3-yl]-3-(4-fluorophenyl)urea] |
| 9.16 | COc1cc(F)c([C@@H]2CN(CCO)C(=O)[C@H]2NC(=O)Nc2ccc(C)cc2)c(F)c1 (relative stereo) [Example 24-7, (−)-1-[(3S*,4R*)-4-(2,6-difluoro-4-methoxyphenyl)-1-(2-hydroxyethyl)-2-oxopyrrolidin-3-yl]-3-(p-tolyl)urea] |
| 9.92 | COc1cc(F)c([C@@H]2CN(CS(C)(=O)=O)C(=O)[C@H]2NC(=O)Nc2ccc(F)cc2)c(F)c1 (relative stereo) [Example 24-14, (−)-1-{(3S*,4R*)-4-(2,6-difluoro-4-methoxyphenyl)-1-[(methylsulfonyl)methyl]-2-oxopyrrolidin-3-yl}-3-(4-fluorophenyl)urea] |
| 8.80 | COc1cc(F)c([C@@H]2CN(C)C(=O)[C@H]2NC(=O)Nc2cc3ccccc3s2)c(F)c1 (relative stereo) [Example 24-5, (−)-1-(benzo[b]thiophen-2-yl)-3-[(3S*,4R*)-4-(2,6-difluoro-4-methoxyphenyl)-1-methyl-2-oxopyrrolidin-3-yl]urea] |
| 9.00 | COc1cc(F)c([C@@H]2CN(CCO)C(=O)[C@H]2NC(=O)Nc2cc3ccccc3s2)c(F)c1 (relative stereo) [Example 24-10, (−)-1-(benzo[b]thiophen-2-yl)-3-[(3S*,4R*)-4-(2,6-difluoro-4-methoxyphenyl)-1-(2-hydroxyethyl)-2-oxopyrrolidin-3-yl]urea] |
| 10.52 | COc1cc(F)c([C@@H]2CN(Cc3nnc(C)o3)C(=O)[C@H]2NC(=O)Nc2ccc(F)cc2)c(F)c1 (single isomer, unassigned) [EXAMPLE 24-18, (−)-1-{(3S*,4R*)-4-(2,6-difluoro-4-methoxyphenyl)-1-[(5-methyl-1,3,4-oxadiazol-2-yl)methyl]-2-oxopyrrolidin-3-yl}-3-(4-fluorophenyl)urea] |

Source: patent publication US9822069B2, “Urea derivative or pharmacologically acceptable salt thereof” (KYORIN PHARMACEUTICAL CO. LTD., priority 2013, dated 2017)
